In patent US12661416B2, “Combinations of imaging agent conjugates and application thereof” (Curadel Surgical Innovations, Inc., priority 2023, dated 2026):

Columns and labels:
[1] = In vitro stability in warm serum (normalized absorbance / absorption spectra over time); assay type: in vitro ADME; conditions: compared to ZW800-1
Experimental: cRGD-ZW700-1c ZW700-1c, and ZW-800-1 are shown in FIG. 1 and are characterized with respect to their optical properties and stability in vitro. Commercial NIR fluorophores, such as IRDye™800-RS (RS-800), IRDye800-CW (CW-800), Cy5.5, and Cy7 have various degrees of sulfonation in order to achieve aqueous solubility.
The normalized absorbance of ZW800-1 and ZW700-1c in 37° C. buffered FBS, pH 7.4 over time from 0 to 60 hours are shown in FIGS. 2-4.

[2] = Stability in serum; assay type: in vitro ADME

| stability (normalized absorbance over time) ([1]; 37° C. buffered FBS, pH 7.4, 0 to 60 hours) | stability over time (changes in absorption spectra during metabolism in warm serum) ([1]; warm serum) | stability in serum [2] | SMILES |
| --- | --- | --- | --- |
| extreme stability | high stability |  | CC1(C)C(/C=C/C(=C/C=C2/N(CCC[N+](C)(C)C)c3ccc(S(=O)(=O)[O-])cc3C2(C)C)c2ccc(CCC(=O)[O-])cc2)=[N+](CCC[N+](C)(C)C)c2ccc(S(=O)(=O)[O-])cc21 [ZW700-1c] |
|  |  | stable in serum for days | N=C(N)NCC[C@@H]1NC(=O)[C@H](CCCCN)NC(=O)[C@@H](Cc2ccc(O)cc2)NC(=O)[C@H](C(=O)O)NC(=O)CNC1=O [cRGD] |
